# Measured values taken from ChEMBL document CHEMBL5291721, “A preclinical secondary pharmacology resource illuminates target-adverse drug reaction associations of marketed drugs” (Nat Commun, 2023).
# Assays:
# D(1A) dopamine receptor [1] = molecular target: T1, D(1A) dopamine receptor (Homo sapiens, UniProt P21728); assay type: functional, cell-based
# [2] = molecular target: Receptor tyrosine-protein kinase erbB-2 (Homo sapiens, UniProt P04626); assay type: functional
# Acetylcholinesterase = Acetylcholinesterase (Homo sapiens, UniProt P22303); assay type: functional
# Acetylcholinesterase, sequence (P22303 whole entry): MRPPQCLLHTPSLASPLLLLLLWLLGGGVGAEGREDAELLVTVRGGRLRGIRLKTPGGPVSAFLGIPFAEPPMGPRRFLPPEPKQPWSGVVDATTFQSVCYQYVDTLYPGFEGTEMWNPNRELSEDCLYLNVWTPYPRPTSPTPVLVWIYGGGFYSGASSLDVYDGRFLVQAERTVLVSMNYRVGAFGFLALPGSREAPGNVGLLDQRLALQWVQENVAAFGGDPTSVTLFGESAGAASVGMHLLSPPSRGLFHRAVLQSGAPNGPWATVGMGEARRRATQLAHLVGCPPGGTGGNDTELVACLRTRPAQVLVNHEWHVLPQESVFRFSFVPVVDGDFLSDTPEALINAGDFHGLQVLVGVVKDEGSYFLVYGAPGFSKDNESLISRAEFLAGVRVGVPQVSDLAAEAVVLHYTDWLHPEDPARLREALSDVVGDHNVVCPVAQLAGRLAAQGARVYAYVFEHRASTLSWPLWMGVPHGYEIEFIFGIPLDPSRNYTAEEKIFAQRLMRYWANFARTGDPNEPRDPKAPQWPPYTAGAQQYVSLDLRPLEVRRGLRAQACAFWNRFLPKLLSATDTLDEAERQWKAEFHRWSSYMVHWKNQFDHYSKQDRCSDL
# [3] = molecular target: Rod cGMP-specific 3',5'-cyclic phosphodiesterase subunit alpha (Homo sapiens, UniProt P16499); assay type: functional
# Rod cGMP-specific 3',5'-cyclic phosphodiesterase subunit alpha, sequence (P16499 whole entry): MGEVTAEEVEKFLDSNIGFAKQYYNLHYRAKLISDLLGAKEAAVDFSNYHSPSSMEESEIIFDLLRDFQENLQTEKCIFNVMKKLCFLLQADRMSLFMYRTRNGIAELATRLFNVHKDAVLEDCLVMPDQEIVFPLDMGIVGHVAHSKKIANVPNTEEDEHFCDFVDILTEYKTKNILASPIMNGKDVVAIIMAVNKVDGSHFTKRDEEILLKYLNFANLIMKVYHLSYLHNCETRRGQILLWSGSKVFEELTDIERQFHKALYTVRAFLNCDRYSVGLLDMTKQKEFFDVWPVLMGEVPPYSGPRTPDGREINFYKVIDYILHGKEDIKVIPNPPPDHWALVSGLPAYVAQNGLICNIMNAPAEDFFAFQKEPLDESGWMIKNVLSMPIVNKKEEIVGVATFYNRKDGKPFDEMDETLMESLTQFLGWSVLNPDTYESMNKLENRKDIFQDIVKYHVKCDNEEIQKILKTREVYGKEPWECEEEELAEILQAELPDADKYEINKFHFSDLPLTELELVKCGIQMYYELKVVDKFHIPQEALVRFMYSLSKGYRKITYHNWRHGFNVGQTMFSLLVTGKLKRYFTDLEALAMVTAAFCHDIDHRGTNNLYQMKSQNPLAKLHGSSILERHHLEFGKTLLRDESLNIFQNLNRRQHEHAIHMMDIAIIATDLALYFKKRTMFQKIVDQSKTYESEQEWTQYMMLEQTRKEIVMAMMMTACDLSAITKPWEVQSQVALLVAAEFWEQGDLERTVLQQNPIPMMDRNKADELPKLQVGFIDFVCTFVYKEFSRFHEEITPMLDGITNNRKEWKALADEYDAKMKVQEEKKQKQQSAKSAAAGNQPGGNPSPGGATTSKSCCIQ
# [4] = molecular target: T2, Muscarinic acetylcholine receptor M2 (Homo sapiens, UniProt P08172)
# T2 sequence (P08172 whole entry): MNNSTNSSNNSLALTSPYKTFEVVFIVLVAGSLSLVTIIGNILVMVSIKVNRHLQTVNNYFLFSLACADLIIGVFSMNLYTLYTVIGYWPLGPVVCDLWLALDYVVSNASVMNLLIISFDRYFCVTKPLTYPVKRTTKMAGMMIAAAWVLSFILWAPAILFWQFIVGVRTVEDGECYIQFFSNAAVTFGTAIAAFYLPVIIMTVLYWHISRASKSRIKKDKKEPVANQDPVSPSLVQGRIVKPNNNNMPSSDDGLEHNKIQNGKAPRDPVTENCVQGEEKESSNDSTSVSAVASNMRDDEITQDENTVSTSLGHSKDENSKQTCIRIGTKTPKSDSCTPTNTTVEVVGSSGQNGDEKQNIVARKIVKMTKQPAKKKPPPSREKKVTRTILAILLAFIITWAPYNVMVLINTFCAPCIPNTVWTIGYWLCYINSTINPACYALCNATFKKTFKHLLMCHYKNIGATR
# D(1A) dopamine receptor [5] = molecular target: T1, D(1A) dopamine receptor
# [6] = molecular target: T3, Alpha-1A adrenergic receptor (Homo sapiens, UniProt P35348)
# T3 sequence (P35348 whole entry): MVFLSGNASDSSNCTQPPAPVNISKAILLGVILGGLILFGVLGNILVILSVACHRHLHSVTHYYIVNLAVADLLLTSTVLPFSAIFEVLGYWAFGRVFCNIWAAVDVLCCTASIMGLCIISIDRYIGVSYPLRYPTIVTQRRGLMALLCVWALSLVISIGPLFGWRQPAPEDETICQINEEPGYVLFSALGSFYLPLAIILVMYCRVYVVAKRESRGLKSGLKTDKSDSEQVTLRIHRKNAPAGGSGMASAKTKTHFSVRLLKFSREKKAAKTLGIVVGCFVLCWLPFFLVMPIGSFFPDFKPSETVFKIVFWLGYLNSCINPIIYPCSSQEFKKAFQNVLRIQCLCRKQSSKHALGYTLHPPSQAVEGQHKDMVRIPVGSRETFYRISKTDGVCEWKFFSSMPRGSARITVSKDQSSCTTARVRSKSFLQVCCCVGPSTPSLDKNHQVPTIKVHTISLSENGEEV
# Histamine H1 receptor = Histamine H1 receptor (Homo sapiens, UniProt P35367); assay type: functional, cell-based
# Histamine H1 receptor, sequence (P35367 whole entry): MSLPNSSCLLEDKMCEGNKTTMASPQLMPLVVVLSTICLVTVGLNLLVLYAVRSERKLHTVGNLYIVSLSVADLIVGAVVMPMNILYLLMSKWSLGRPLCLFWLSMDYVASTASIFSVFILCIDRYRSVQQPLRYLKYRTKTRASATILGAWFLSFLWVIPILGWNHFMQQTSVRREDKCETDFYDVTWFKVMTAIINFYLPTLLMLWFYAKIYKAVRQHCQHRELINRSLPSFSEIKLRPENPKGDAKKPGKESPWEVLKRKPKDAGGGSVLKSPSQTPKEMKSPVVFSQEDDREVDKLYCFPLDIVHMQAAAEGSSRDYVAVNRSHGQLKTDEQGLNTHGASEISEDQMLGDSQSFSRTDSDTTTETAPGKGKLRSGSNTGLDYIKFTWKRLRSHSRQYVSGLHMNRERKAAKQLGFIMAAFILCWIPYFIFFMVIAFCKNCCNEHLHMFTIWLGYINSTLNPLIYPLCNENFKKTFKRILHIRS
# [7] = molecular target: T4, Prostaglandin G/H synthase 1 (Rattus norvegicus, UniProt Q63921); assay type: functional
# T4 sequence (Q63921 whole entry): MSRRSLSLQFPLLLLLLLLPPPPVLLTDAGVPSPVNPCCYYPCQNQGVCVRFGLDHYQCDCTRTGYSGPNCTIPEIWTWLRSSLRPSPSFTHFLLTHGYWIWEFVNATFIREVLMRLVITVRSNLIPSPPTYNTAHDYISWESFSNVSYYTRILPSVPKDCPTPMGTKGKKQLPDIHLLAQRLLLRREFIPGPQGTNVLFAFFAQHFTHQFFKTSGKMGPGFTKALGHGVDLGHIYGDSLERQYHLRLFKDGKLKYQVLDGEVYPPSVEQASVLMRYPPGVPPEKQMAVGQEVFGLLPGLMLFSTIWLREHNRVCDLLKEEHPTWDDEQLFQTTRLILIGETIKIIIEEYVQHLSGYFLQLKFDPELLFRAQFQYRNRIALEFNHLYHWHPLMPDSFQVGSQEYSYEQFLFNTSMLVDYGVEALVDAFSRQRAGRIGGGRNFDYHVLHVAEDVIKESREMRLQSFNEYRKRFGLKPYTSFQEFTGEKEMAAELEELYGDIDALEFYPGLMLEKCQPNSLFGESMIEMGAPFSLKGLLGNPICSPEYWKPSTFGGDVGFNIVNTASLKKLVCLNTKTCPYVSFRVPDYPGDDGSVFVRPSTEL
# D(1A) dopamine receptor [8] = molecular target: T1, D(1A) dopamine receptor; remark: listed apart in the source
# [9] = molecular target: T5, Nuclear receptor subfamily 1 group I member 3 (Homo sapiens, UniProt Q14994); assay type: functional
# T5 sequence (Q14994 whole entry): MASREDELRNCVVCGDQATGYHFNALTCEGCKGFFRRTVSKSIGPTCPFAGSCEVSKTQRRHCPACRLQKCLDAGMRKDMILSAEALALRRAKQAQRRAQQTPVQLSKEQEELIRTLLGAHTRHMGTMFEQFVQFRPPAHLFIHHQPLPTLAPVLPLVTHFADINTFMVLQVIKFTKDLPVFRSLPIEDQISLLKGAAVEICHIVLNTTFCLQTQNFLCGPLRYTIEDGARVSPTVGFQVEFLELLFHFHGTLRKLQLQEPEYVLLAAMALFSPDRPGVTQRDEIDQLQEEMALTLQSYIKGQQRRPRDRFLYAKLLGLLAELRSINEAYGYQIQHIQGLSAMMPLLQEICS
# [10] = molecular target: T6, Retinoic acid receptor gamma (Homo sapiens, UniProt P13631); assay type: functional, cell-based
# T6 sequence (P13631 whole entry): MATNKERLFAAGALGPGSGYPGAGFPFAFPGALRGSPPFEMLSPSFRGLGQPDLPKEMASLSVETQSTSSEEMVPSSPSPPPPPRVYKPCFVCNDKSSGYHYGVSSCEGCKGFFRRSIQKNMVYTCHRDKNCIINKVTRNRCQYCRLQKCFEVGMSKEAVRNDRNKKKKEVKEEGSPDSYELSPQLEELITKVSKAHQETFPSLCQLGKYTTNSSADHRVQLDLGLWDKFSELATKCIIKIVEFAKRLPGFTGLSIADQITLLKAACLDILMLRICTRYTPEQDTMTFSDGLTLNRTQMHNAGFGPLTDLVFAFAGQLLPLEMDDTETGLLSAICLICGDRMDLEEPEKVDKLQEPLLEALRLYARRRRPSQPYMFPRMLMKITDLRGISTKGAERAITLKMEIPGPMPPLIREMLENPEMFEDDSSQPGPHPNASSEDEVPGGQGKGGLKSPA
# Further: assay procedure not described here.
# T1 sequence (P21728 whole entry): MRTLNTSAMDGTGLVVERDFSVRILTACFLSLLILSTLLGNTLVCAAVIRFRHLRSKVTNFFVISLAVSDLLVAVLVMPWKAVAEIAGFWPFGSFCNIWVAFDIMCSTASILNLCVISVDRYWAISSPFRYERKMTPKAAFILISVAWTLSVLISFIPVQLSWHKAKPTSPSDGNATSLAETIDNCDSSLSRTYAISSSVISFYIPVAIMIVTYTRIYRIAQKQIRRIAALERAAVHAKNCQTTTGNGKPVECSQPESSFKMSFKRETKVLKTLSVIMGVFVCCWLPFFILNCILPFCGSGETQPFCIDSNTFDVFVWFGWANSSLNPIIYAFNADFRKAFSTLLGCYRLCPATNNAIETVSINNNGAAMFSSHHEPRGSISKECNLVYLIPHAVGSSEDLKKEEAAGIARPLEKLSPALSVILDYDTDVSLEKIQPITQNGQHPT
# Receptor tyrosine-protein kinase erbB-2, sequence (P04626 whole entry): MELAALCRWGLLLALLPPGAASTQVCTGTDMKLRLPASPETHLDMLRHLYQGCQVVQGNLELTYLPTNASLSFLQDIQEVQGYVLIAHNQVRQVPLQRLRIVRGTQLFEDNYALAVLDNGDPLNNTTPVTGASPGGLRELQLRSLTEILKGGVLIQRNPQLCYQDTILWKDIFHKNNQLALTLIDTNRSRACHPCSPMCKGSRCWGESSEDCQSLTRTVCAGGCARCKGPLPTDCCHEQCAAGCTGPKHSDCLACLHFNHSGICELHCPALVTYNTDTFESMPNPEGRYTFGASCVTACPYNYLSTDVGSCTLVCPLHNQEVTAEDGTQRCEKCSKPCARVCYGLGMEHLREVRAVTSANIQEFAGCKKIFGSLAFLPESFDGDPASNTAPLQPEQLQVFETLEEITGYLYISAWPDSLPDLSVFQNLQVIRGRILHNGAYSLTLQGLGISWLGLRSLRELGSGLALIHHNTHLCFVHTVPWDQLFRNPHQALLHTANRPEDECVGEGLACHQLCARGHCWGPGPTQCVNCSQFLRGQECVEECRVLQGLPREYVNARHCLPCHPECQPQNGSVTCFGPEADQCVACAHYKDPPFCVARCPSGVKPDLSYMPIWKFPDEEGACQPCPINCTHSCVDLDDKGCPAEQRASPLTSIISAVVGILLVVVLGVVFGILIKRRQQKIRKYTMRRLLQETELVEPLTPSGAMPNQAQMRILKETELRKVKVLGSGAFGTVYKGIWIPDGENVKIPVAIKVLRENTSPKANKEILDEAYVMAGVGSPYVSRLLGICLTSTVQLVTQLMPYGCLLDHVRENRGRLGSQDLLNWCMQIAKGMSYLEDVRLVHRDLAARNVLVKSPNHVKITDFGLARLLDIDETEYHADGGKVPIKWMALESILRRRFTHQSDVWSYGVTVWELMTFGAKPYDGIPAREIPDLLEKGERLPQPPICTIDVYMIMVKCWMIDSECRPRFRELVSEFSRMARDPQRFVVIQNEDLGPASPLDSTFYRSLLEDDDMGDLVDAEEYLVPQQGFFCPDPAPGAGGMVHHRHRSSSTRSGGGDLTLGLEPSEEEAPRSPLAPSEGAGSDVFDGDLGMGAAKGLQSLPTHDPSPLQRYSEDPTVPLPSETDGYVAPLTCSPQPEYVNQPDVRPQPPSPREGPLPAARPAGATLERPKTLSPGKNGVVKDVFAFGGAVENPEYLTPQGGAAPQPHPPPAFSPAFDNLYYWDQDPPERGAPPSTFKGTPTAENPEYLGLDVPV
smiles,measurement,setting,value
CO/N=C(\C(=O)N[C@@H]1C(=O)N2C(C(=O)[O-])=C(C[N+]3(C)CCCC3)CS[C@H]12)c1csc(N)n1,AC50,D(1A) dopamine receptor [1],> 300 µM
same,AC50,[2],> 300 µM
same,AC50,Acetylcholinesterase,> 300 µM
CCOC(=O)[C@H](CCc1ccccc1)N[C@@H](C)C(=O)N1CCC[C@H]1C(=O)O,AC50,[3],> 10 µM
Nc1nc(N)c2nc(-c3ccccc3)c(N)nc2n1,AC50,[3],> 10 µM
same,AC50,[4],> 30 µM
same,AC50,D(1A) dopamine receptor [5],> 30 µM
CC(=O)c1ccc2c(c1)N(CCCN1CCN(CCO)CC1)c1ccccc1S2 [ACETOPHENAZINE],AC50,D(1A) dopamine receptor [1],1.11 µM
same,AC50,D(1A) dopamine receptor [5],0.1 µM
Oc1ncnc2[nH]ncc12 [ALLOPURINOL],AC50,[4],> 30 µM
same,AC50,D(1A) dopamine receptor [5],> 30 µM
CC(=O)OCC(=O)[C@@]1(O)CC[C@H]2[C@@H]3CCC4=CC(=O)CC[C@]4(C)[C@H]3C(=O)C[C@@]21C [CORTISONE ACETATE],AC50,[6],> 30 µM
COC(=O)[C@@H]1CC2=CC(=O)CC[C@]2(C)[C@@]23O[C@@H]2C[C@@]2(C)[C@@H](CC[C@@]24CCC(=O)O4)[C@H]13 [EPLERENONE],AC50,D(1A) dopamine receptor [1],> 30 µM
same,AC50,[2],> 30 µM
same,AC50,Histamine H1 receptor,> 30 µM
same,AC50,[7],> 30 µM
same,AC50,Acetylcholinesterase,> 30 µM
CCC(=O)O[C@H]1[C@H](O[C@@H]2[C@@H](C)[C@H](O[C@H]3C[C@@](C)(OC)[C@@H](O)[C@H](C)O3)[C@@H](C)C(=O)O[C@H](CC)[C@@](C)(O)[C@H](O)[C@@H](C)C(=O)[C@H](C)C[C@@]2(C)O)O[C@H](C)C[C@@H]1N(C)C [ERYTHROMYCIN PROPIONATE],AC50,[6],> 30 µM
same,AC50,D(1A) dopamine receptor [8],17 µM
NC(N)=Nc1nc(CSCCC(N)=NS(N)(=O)=O)cs1 [FAMOTIDINE],AC50,[3],> 10 µM
CC(C)C(=O)Nc1ccc([N+](=O)[O-])c(C(F)(F)F)c1 [FLUTAMIDE],AC50,[4],> 30 µM
same,AC50,D(1A) dopamine receptor [5],> 30 µM
COc1ccc2c(c1)C(=O)N(CCc1ccc(S(=O)(=O)NC(=O)NC3CCCCC3)cc1)C(=O)C2(C)C [GLIQUIDONE],AC50,[9],4.8 µM
same,AC50,[10],> 30 µM
NS(=O)(=O)c1cc2c(cc1Cl)NCNS2(=O)=O [HYDROCHLOROTHIAZIDE],AC50,[3],> 10 µM
CC(C)Cc1ccc(CC(=O)O)cc1 [IBUFENAC],AC50,D(1A) dopamine receptor [1],> 30 µM
same,AC50,[2],> 30 µM
same,AC50,Acetylcholinesterase,> 30 µM
CC(C)NNC(=O)c1ccncc1 [IPRONIAZID],AC50,D(1A) dopamine receptor [1],> 30 µM
same,AC50,[2],> 30 µM
same,AC50,Acetylcholinesterase,> 30 µM
OC[C@@H](O)[C@@H](O)[C@H](O)[C@H](O)CO [MANNITOL],AC50,[6],> 30 µM
same,AC50,D(1A) dopamine receptor [8],> 30 µM
CC(C(=O)O)c1ccc(N2CC=CC2)c(Cl)c1 (stereo not given) [PIRPROFEN],AC50,Histamine H1 receptor,> 30 µM
NC(=O)c1cnccn1 [PYRAZINAMIDE],AC50,[4],> 30 µM
same,AC50,D(1A) dopamine receptor [5],> 30 µM
Cc1cc2c(cc1CC(=O)c1sccc1S(=O)(=O)Nc1onc(C)c1Cl)OCO2 [SITAXENTAN],AC50,[6],> 30 µM
same,AC50,D(1A) dopamine receptor [8],> 30 µM
Cc1ccc(C(=O)c2cc(O)c(O)c([N+](=O)[O-])c2)cc1 [TOLCAPONE],AC50,[9],13 µM
O=C(CCCCCCC(=O)Nc1ccccc1)NO [VORINOSTAT],AC50,Histamine H1 receptor,> 30 µM
